The target of this assay is Serine/threonine-protein kinase PLK1 (Homo sapiens) (UniProt P53350). In words: activity against human Plk1 kinase – biochemical, selectivity assay for PKD inhibitor project, dose response (AID 1383). The conditions noted are these: counterscreen.

Calls of active or inactive are those of the source. The rule behind the calls is not given here. Where only a bound is given, the exact number is not on record here.

Sequence of Serine/threonine-protein kinase PLK1 (Homo sapiens) (P53350 whole entry, looked up): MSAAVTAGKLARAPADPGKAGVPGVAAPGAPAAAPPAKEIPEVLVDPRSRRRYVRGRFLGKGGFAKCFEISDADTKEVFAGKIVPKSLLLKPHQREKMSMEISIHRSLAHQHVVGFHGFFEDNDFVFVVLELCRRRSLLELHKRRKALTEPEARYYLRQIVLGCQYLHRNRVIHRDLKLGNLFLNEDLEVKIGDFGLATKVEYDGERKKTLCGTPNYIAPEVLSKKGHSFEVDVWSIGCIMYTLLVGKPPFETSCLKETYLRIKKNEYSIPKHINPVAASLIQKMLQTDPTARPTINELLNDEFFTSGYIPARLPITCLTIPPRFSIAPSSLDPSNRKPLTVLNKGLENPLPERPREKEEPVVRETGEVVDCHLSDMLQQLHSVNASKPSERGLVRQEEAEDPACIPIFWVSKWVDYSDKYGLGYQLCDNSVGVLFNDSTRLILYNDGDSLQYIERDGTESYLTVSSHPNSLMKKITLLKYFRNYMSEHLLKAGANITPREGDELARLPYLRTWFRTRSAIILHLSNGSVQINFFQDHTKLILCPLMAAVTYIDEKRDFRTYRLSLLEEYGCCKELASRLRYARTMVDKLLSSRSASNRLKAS

As to `Clc1cncc(Cl)c1N/N=C/c1ccncc1`, the IC50 – broadly, the concentration that gives 50% inhibition – was > 50 µM (inactive).

(Values after PubChem BioAssay AID1383 (University of Pittsburgh Molecular Library Screening Center, 2008).)
